Assay results from patent US12409181B2, “Treatment for aortic aneurysms” (THE REGENTS OF THE UNIVERSITY OF CALIFORNIA, priority 2019, dated 2025).
“Also recorded” adds a separate entry of the source.

What was measured:
[1] = tested on: human aortic SMCs; test: H2O2 production by Amplex Red in SMCs expressing PKG1^RQ; assay type: cell-based; conditions: human aortic SMCs infected with PKG1^RQ adenovirus
Procedure: (§1) SMC Culture and Adenovirus Infection. Murine aortic SMCs were isolated from the aortas of 8-12 week old wild type and PKG1^RQ/+ mice and were cultured in Smooth Muscle Basal Media (SmBM) containing 20% FBS, pyruvate, HEPES, L-glutamine, penicillin/streptomycin and growth factors (SmBM Bullet kit; CC-4149 from Lonza), as previously described.^69 Two independent cell isolates from wild type and PKG1^RQ mice were used at passage one. Human primary aortic SMCs were purchased from Lifeline Cell Technology (Frederick, MD, FC-0015) and cultured in VascuLife Basal Medium supplemented with recombinant epidermal growth factor, insulin, and fibroblast growth factor-b, ascorbic acid, L-glutamine, 20% FBS, gentamycin, and amphotericin (Vasculife SMC LifeFactors kit; LS-1040 from Lifeline Technologies). Human SMCs were used at passages 3-6. […]
Amplex Red and NADPH Oxidase Assays. Primary murine SMCs isolated from wild type or PKG1^RQ/+ aortas, and human SMCs infected with control, wild type, or mutant PKG1^RQ virus, were seeded at 4×10^4 cells/well in 96-well plates, and H2O2 production was measured using an Amplex Red/Hydrogen Peroxide/Peroxidase Assay Kit (Thermo Fischer Scientific). […] Fluorescence was measured every min in a BioTek Synergy 2 plate reader, using 540 nm excitation and 590 nm emission wavelengths.

[2] = tested on: human aortic SMCs; test: DNA oxidation by 8-OH-deoxyguanosine immunofluorescence staining in SMCs; assay type: cell-based; conditions: human aortic SMCs expressing PKG1^RQ
Procedure: as §1, with “3-6. Adenovirus was generated using the ViraPower Adenoviral Expression System (Thermo Fisher).^67 Human SMCs were infected with virus expressing wild type or mutant human PKG1α (containing the R177Q mutation); the MOI was 3-10 and titrated to produce wild type and mutant kinase at 2-3 fold the level of endogenous PKG1 at 72 h post infection.” for “3-6.”
(§2) SMC Immunofluorescence Staining. […] Images were analyzed with a Keyence BZ-X700 fluorescence microscope.

[3] = tested on: human aortic SMCs; test: SMC proliferation by BrdU uptake; assay type: cell-based
Procedure: as §1, with “3-6. Adenovirus was generated using the ViraPower Adenoviral Expression System (Thermo Fisher).^67 Human SMCs were infected with virus expressing wild type or mutant human PKG1α (containing the R177Q mutation); the MOI was 3-10 and titrated to produce wild type and mutant kinase at 2-3 fold the level of endogenous PKG1 at 72 h post infection.” for “3-6.”
as §2

[4] = tested on: human aortic SMCs; test: SMC apoptosis by cleaved caspase-3 staining; assay type: cell-based; conditions: human SMCs expressing PKG1^RQ
Procedure: as §1, with “3-6. Adenovirus was generated using the ViraPower Adenoviral Expression System (Thermo Fisher).^67 Human SMCs were infected with virus expressing wild type or mutant human PKG1α (containing the R177Q mutation); the MOI was 3-10 and titrated to produce wild type and mutant kinase at 2-3 fold the level of endogenous PKG1 at 72 h post infection.” for “3-6.”
as §2

[5] = tested on: human aortic SMCs; test: Western blots (VASP phosphorylation, JNK activation) and OxyBlot protein oxidation in human SMCs; assay type: cell-based
Procedure: Western Blotting. Following anesthesia with ketamine (100 mg/kg) and xylazine (10 mg/kg) by intraperitoneal injection, mice were exsanguinated and perfused with ice-cold phosphate-buffered saline (PBS) containing protease inhibitor cocktail (Calbiochem #539131). Aortas were excised, cleaned from surrounding tissue, and snap-frozen in liquid nitrogen within 15 min of euthanasia. Frozen aortas were pulverized and sonicated (3×10 sec) in ice-cold RIPA buffer (50 mM NaCl, 50 mM Tris-HCl, pH 8, 1% NP-40, 0.1% SDS, 0.5% sodium deoxycholate) supplemented with 1 mM NaF, 1 mM β-glycerolphosphate, and protease inhibitor cocktail. Western blots were developed with primary antibodies specific for PKG1 (1:1000, Cell Signaling Technology; 3248, […] (1:1000, Cell Signaling Technology; 3114), GAPDH (1:1000, Cell Signaling Technology; 2118), β-actin (1:5000, Santa Cruz Biotechnology; 47778), and JNK-phospho-Thr^183/Tyr^185 (1:1000, Cell Signaling Technology; 9251). Blots were developed and visualized with enhanced chemiluminescence using LI-COR Odyssey (with ImageStudio, V5) or with film in the linear range of exposure (with densitometry scanning using ImageJ (V1.51). Protein carbonyl groups (aldehydes and ketones) were detected using the OxyBlot™ Protein Oxidation Detection Kit (Millipore EMD; S7150). Unprocessed scans of blots are provided in the Source Data file.
SMC Culture and Adenovirus Infection. Murine aortic SMCs were isolated from the aortas of 8-12 week old wild type and PKG1^RQ/+ mice and were cultured in Smooth Muscle Basal Media (SmBM) containing 20% FBS, pyruvate, HEPES, L-glutamine, penicillin/streptomycin and growth factors (SmBM Bullet kit; CC-4149 from Lonza), as previously described.^69 Two independent cell isolates from wild type and PKG1^RQ mice were used at passage one. Human primary aortic SMCs were purchased from Lifeline Cell Technology (Frederick, MD, FC-0015) and cultured in VascuLife Basal Medium supplemented with recombinant epidermal growth factor, insulin, and fibroblast growth factor-b, ascorbic acid, L-glutamine, 20% FBS, gentamycin, and amphotericin (Vasculife SMC LifeFactors kit; LS-1040 from Lifeline Technologies). Human SMCs were used at passages 3-6. Adenovirus was generated using the ViraPower Adenoviral Expression System (Thermo Fisher).^67 Human SMCs were infected with virus expressing wild type or mutant human PKG1α (containing the R177Q mutation); the MOI was 3-10 and titrated to produce wild type and mutant kinase at 2-3 fold the level of endogenous PKG1 at 72 h post infection. […] For knock-down of NOX2 and NOX4, SMCs were infected with adenovirus expressing shNOX2 or shNOX4 oligomers (downstream of the U6 promoter) at an MOI of 100; H2O2 production and NADPH oxidase activity assays were performed 48 h later (as described below).

[6] = biological target: T1, PKG1^RQ (Homo sapiens, UniProt Q13976, R177Q); test: Kinase activity of purified PKG1^RQ; assay type: biochemical; conditions: purified enzyme
T1 construct: FLAG (N); made in house; host or cells: transiently transfected 293T cells (ATCC, CRL3216)
T1 sequence (Q13976 1-671 R177Q): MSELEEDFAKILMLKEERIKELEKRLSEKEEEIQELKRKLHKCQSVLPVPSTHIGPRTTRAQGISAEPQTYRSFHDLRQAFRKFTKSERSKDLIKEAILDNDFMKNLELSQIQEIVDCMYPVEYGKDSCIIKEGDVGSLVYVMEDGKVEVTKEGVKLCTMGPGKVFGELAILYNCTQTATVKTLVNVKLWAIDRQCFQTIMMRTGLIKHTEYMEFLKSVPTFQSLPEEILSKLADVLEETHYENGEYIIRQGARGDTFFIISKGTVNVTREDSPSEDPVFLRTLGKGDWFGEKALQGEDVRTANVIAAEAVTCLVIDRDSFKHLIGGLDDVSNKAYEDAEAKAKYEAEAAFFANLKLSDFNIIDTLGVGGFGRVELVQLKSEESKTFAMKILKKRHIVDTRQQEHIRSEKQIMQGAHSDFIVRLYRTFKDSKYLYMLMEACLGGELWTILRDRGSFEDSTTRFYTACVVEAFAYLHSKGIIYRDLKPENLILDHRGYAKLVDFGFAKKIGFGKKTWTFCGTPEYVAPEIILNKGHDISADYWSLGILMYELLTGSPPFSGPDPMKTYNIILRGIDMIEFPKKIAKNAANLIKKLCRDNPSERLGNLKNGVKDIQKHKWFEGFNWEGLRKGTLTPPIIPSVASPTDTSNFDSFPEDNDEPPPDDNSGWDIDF
Procedure: PKG1 Purification and Activity Assays. Wild type and mutant PKG1^RQ were expressed with N-terminal FLAG epitope tags in transiently-transfected 293T cells (ATCC, CRL3216), purified with anti-FLAG beads and eluted with FLAG peptide, and kinase activity assays were performed.^41 Kinase activity in SMC and aortic extracts was measured using an optimized peptide in the presence of 1.25 μM protein kinase inhibitor peptide (PKI) to inhibit cAMP-dependent protein kinase.^65 Assays were performed with [γ-^32PO4]ATP (1.3 Ci/mmol; 50 μM) in the presence and absence of 3 μM cGMP, and were linear with time and protein concentration. In some assays, the PKG-specific inhibitory peptide DT2 was included at 10 μM.

[7] = tested on: Prkg1^RQ/+ mice; test: Aortic gene expression by quantitative RT-PCR after Cbi treatment; assay type: in vivo; conditions: 12 month-old Prkg1^RQ/+ mice, 1 mM Cbi in drinking water for 1 month
Procedure: (§3) Randomization and Drug Treatment of Mice. At the time of weaning, male and female litter mates were separated and randomly assigned to new cages. At the age of 6 months (aging studies) or 10-14 weeks (TAC studies), matched cages containing mice born within a three week period were randomly assigned to treatment versus vehicle groups. For aging studies, some mice received 1 mM trihistidyl-cobinamine (Cbi) in the drinking water, starting from the age of 6 months until 12 months. For gene expression studies, mice were treated with 1 mM Cbi for one month only, from 11-12 months of age. For TAC studies, some mice received 1 mg/ml N-acetylcysteine (NAC) in the drinking water starting 4 weeks before until 2 weeks after the surgery. The drugs were dissolved freshly each week and filter-sterilized; fluid intake was monitored weekly. The Cbi dose was calculated to be 50 mg/kg/d, and the NAC dose was 500 mg/kg/d. Aquohydroxyl-cobinamide was synthesized from cobalamine by removal of the 5,6-dimethyl-benzimidazol ring; trihistidyl-cobinamide was obtained by adding three molar equivalents of L-histidine to the aquohydroxyl cobinamide.^63 Purity of the drug was >95% by high-pressure liquid chromatography.
Quantitative RT-PCR. Aortas were dissected and snap-frozen as described above; they were pulverized and immersed in Trizol (Molecular Res. Center, TR118). Total RNA was isolated, reverse-transcribed using iScript cDNA synthesis kit (Bio-Rad), and PCR was performed using a MX3005P real-time PCR detection system with Brilliant II SYBR Green Mix (Agilent Technologies) as described.^67 All primers were intron-spanning (except for 18S rRNA), and were tested with serial cDNA dilutions. Relative changes in mRNA expression were analyzed using the comparative 2^−ΔΔCt method, with 18S rRNA and phosphoglycerate kinase-1 serving as internal controls.^68

[8] = tested on: Prkg1^RQ/+ mice; test: Aging study: cobinamide in drinking water, Prkg1^RQ/+ mice; assay type: in vivo
[9] = tested on: wild type mice; test: Cobinamide treatment: effects and toxicity in mice; assay type: in vivo
Procedure: as §3

[10] = human aortic SMCs, combined with low concentrations of an NO donor
[11] = Prkg1^RQ/+ mice, 1 mM Cbi in drinking water from age 6 to 12 months

Molecule: CN(C)c1cccc(-c2c3c(=O)n(-c4ccccc4Cl)[nH]c3cc(=O)n2C)c1 [GKT137831]
- H2O2 production in PKG1^RQ-expressing cells [1]: reduced H2O2 production in the PKG1^RQ-expressing cells to a level found in control cells
- PKG1^RQ-induced increase in DNA oxidation (pro-oxidant effect of PKG1^RQ) [2]: blocked
- growth-inhibitory effect of PKG1^RQ (SMC proliferation) ([3]; human SMCs expressing PKG1^RQ, growth factor-induced proliferation): partly prevented
- pro-apoptotic effect of PKG1^RQ (SMC apoptosis) [4]: partly prevented

Molecule: CCCc1nn(C)c2c(=O)[nH]c(-c3cc(S(=O)(=O)N4CCN(C)CC4)ccc3OCC)nc12 [sildenafil, reference compound]
- JNK activation [5, 10]: induced JNK activation
- VASP phosphorylation [5, 10]: increased VASP phosphorylation
- SMC proliferation ([3]; human aortic SMCs, drug combination of sildenafil and NO donor): inhibited SMC proliferation

Molecule: trihistidyl-cobinamide [Cbi]
- activity of purified PKG1^RQ [6]: no effect
- Ctgf mRNA in aortas [7]: reduced all five transcripts
- Hif1a mRNA in aortas [7]: reaching levels similar to those observed in wild type mice
- Nox4 mRNA in aortas [7]: reduced all five transcripts
- Tgfb1 mRNA in aortas [7]: reduced all five transcripts
- Vegfa mRNA in aortas [7]: reaching levels similar to those observed in wild type mice
- H2O2-induced JNK activation ([5]; human SMCs): decreased
- H2O2-induced protein oxidation ([5]; human SMCs): decreased
- protein oxidation in PKG1^RQ-expressing cells ([5]; human SMCs expressing PKG1^RQ): reduced protein oxidation
- PKG activity in aortic extracts after treatment of the mice ([8]; Cbi-treated mice): nor did Cbi treatment of the mice affect PKG activity
- prevention of age-related aortic pathology, including aortic dilation ([8]; Prkg1^RQ/+ mice): highly effective
- SMC apoptosis in aortas [8, 11]: reduced oxidative stress markers and SMC apoptosis in aortas of Prkg1^RQ/+ mice to values in WT mice
- SMC loss [8, 11]: completely prevented
- elastin fiber breaks [8, 11]: reduced elastin fiber breaks and media collagen content to levels in WT mice
- media collagen content [8, 11]: reduced elastin fiber breaks and media collagen content to levels in WT mice
- oxidative stress markers in aortas [8, 11]: reduced oxidative stress markers and SMC apoptosis in aortas of Prkg1^RQ/+ mice to values in WT mice; also recorded: reduced oxidative stress markers in the aorta
- aortic dilation ([8]; Prkg1^RQ/+ mice, 1 mM Cbi in drinking water from age 6 to 12 months, ultrasound): completely prevented
- amount of Cys^43-oxidized, cross-linked PKG1 dimer in aortas ([8]; wild type and Prkg1^RQ/+ mice): no effect
- serum homocysteine concentration ([9]; Cbi-treated mice): normal
- serum methylmalonic acid concentration ([9]; Cbi-treated mice): normal
- vitamin B12-dependent functions ([9]; Cbi-treated mice): did not affect
- toxicity ([9]; judged by normal weight, clinical appearance, blood counts, and liver and kidney function tests): no discernible toxicity
- effects in wild type mice ([9]; wild type mice, Cbi in drinking water): no significant effects
